Measurements as given in DBAASP.
≈ marks a conversion by molar mass, not a printed value. Each block holds one compound with its values, some of them ahead of it.

Experiments:
Test in all cases: ≥ marks a high value that may be exact or a test limit, other limits are often not marked, values filed in µg/mL are converted to µM
[1] = test system: Staphylococcus aureus ATCC BAA-1556
[2] = test system: Acinetobacter calcoaceticus
[3] = test system: Candida albicans ATCC 2002
[4] = test system: Escherichia coli ATCC 25922
Pseudomonas aeruginosa = test system: Pseudomonas aeruginosa
Shigella dysenteriae = test system: Shigella dysenteriae
[5] = test system: Staphylococcus aureus ATCC 2592
[6] = test system: Bacillus subtilis ATCC 6633
[7] = test system: Escherichia coli ATCC 10536
[8] = test system: Escherichia coli DH5alpha
[9] = test system: Staphylococcus aureus ATCC 9144

Compound: CC[C@H](C)[C@H](NC(=O)[C@@H]1CCCN1C(=O)[C@H](Cc1ccccc1)NC(=O)[C@@H](N)Cc1ccccc1)C(=O)N[C@H](C(=O)NCC(=O)N[C@@H](CCCCN)C(=O)N[C@@H](CC(C)C)C(=O)N[C@@H](CC(C)C)C(=O)N[C@@H](CO)C(N)=O)C(C)C [FFPIVGKLLS]
- MIC [2]: ≥ 66.9 µM
- MIC [3]: 13.4 µM (≈ 15 µg/mL)
- MIC [4]: 26.8 µM (≈ 30 µg/mL)
- MIC (Pseudomonas aeruginosa): 22.3 µM (≈ 25 µg/mL)
- MIC (Shigella dysenteriae): ≥ 53.6 µM
- MIC [5]: 13.4 µM (≈ 15 µg/mL)

Compound: CC[C@H](C)[C@H](NC(=O)[C@H](CCCN=C(N)N)NC(=O)[C@@H](NC(=O)[C@@H](NC(=O)[C@@H]1CCCN1C(=O)[C@@H](NC(=O)[C@@H](NC(=O)[C@@H](NC(=O)[C@@H]1CCCN1C(=O)CNC(=O)[C@H](Cc1ccc(O)cc1)NC(=O)[C@H](CCCCN)NC(=O)[C@H](CCCCN)NC(=O)[C@H](Cc1c[nH]c2ccccc12)NC(=O)[C@H](C)NC(=O)[C@H](CCCN=C(N)N)NC(=O)[C@H](CC(C)C)NC(=O)[C@H](C)NC(=O)[C@H](CCCCN)NC(=O)[C@H](CCCN=C(N)N)NC(=O)CNC(=O)[C@H](CC(C)C)NC(=O)[C@H](CO)NC(=O)[C@H](CCCN=C(N)N)NC(=O)[C@H](C)NC(=O)CNC(=O)CN)[C@@H](C)CC)[C@@H](C)CC)C(C)C)[C@@H](C)CC)[C@@H](C)CC)C(N)=O [GGARSLGRKALRAWKKYGPIIVPIIRI]
- MIC [6]: 1.5 µM (≈ 4.48 µg/mL)
- MIC [7]: 2.5 µM (≈ 7.47 µg/mL)
- MIC [8]: 2.7 µM (≈ 8.07 µg/mL)
- MIC [9]: 3.8 µM (≈ 11.4 µg/mL)

Compound: CC(C)C[C@H](NC(=O)[C@H](CC(C)C)NC(=O)[C@H](CCCCN)NC(=O)[C@@H](N)CCCCN)C(=O)N[C@@H](CCCCN)C(=O)N[C@@H](Cc1c[nH]c2ccccc12)C(N)=O [KKLLKW]
- MIC [1]: ≥ 100 µM

Compound: NCCCC[C@H](N)C(=O)N[C@@H](Cc1c[nH]c2ccccc12)C(=O)N[C@@H](CCCN=C(N)N)C(=O)N[C@@H](CCCN=C(N)N)C(=O)N[C@@H](Cc1c[nH]c2ccccc12)C(N)=O [KWRRW]
- MIC [1]: ≥ 100 µM

Compound: CC[C@H](C)[C@H](NC(=O)[C@H](CCCN=C(N)N)NC(=O)[C@@H](NC(=O)[C@@H](NC(=O)[C@@H]1CCCN1C(=O)[C@@H](NC(=O)[C@@H](NC(=O)[C@H](C)NC(=O)[C@@H]1CCCN1C(=O)CNC(=O)[C@H](Cc1ccc(O)cc1)NC(=O)[C@H](CCCCN)NC(=O)[C@H](CCCCN)NC(=O)[C@H](Cc1c[nH]c2ccccc12)NC(=O)[C@H](C)NC(=O)[C@H](CCCN=C(N)N)NC(=O)[C@H](CC(C)C)NC(=O)[C@H](C)NC(=O)[C@H](CCCCN)NC(=O)[C@H](CCCN=C(N)N)NC(=O)CNC(=O)[C@H](CC(C)C)NC(=O)[C@H](CO)NC(=O)[C@H](CCCN=C(N)N)NC(=O)[C@H](C)NC(=O)CNC(=O)CN)[C@@H](C)CC)C(C)C)[C@@H](C)CC)[C@@H](C)CC)C(N)=O [GGARSLGRKALRAWKKYGPAIVPIIRI]
- MIC [6]: 1.7 µM (≈ 5.01 µg/mL)
- MIC [7]: 2.6 µM (≈ 7.66 µg/mL)
- MIC [8]: 2.6 µM (≈ 7.66 µg/mL)
- MIC [9]: 3.9 µM (≈ 11.5 µg/mL)

More lines, now with the values ahead:

- MIC [1]: 3.13 µM (≈ 3.56 µg/mL)
Compound: CC(C)C[C@H](NC(=O)[C@H](CC(C)C)NC(=O)[C@H](CCCCN)NC(=O)[C@H](CC(C)C)NC(=O)[C@H](CC(C)C)NC(=O)[C@H](Cc1c[nH]c2ccccc12)NC(=O)[C@H](CCCCN)NC(=O)[C@H](CC(C)C)NC(=O)[C@@H](N)CC(C)C)C(N)=O [LLKWLLKLL]

- MIC [1]: 3.13 µM (≈ 3.34 µg/mL)
Compound: CC(C)C[C@H](NC(=O)[C@H](CC(C)C)NC(=O)[C@H](CCCCN)NC(=O)[C@H](CC(C)C)NC(=O)[C@H](CC(C)C)NC(=O)[C@H](CCCCN)NC(=O)[C@H](CC(C)C)NC(=O)[C@H](CC(C)C)NC(=O)[C@@H](N)CC(C)C)C(N)=O [LLLKLLKLL]
